Legend:
Assay type in all cases: cell-based
[1] = tested on: Ba/F3 cells expressing EGFR-wt; assay: Growth inhibition (GI50) of Ba/F3 cells expressing EGFR-wt, Celltiter glo; details: Mus musculus, BaF3, 72 h
Summary of the method: (§1)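 Antiproliferative activity was assessed in EGFR-mutant or wild-type Ba/F3 cells over 72 h at 37 °C with 5% CO2. Cell viability was determined by CellTiter-Glo, and GI50 taken as the compound concentration inhibiting growth by 50%.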

[2] = tested on: Ba/F3 cells expressing del19/T790M/C797S (EGFR-DTC); assay: Growth inhibition (GI50) of Ba/F3 cells expressing del19/T790M/C797S (EGFR-DTC), Celltiter glo; details: Mus musculus, BaF3, 72 h
Summary of the method: as §1

[3] = tested on: Ba/F3 cells expressing L858R/T790M/C797S (EGFR-LTC); assay: Growth inhibition (GI50) of Ba/F3 cells expressing L858R/T790M/C797S (EGFR-LTC), Celltiter glo; details: Mus musculus, BaF3, 72 h
Summary of the method: as §1

[4] = tested on: Ba/F3 cells expressing del19/T790M (EGFR-DT); assay: Growth inhibition (GI50) of Ba/F3 cells expressing del19/T790M (EGFR-DT), Celltiter glo; details: Mus musculus, BaF3, 72 h
Summary of the method: as §1

[5] = tested on: Ba/F3 cells expressing L858R/T790M (EGFR-LT); assay: Growth inhibition (GI50) of Ba/F3 cells expressing L858R/T790M (EGFR-LT), Celltiter glo; details: Mus musculus, BaF3, 72 h
Summary of the method: as §1

parental Ba/F3 cell line = assay: Growth inhibition (GI50) of the parental Ba/F3 cell line (not introduced with EGFR variants), Celltiter glo; details: Mus musculus, BaF3, 72 h, parental Ba/F3 cells
Summary of the method: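 Viable cell count by CellTiter-Glo after 72 h at 37 °C gave GI50 values (μM, 50% growth inhibition). Cells lacking EGFR variants were seeded at 100,000 cells/ml and dosed 4 h later with 4-fold serial dilutions from a 2 mM stock, 0.5% DMSO.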

COc1cc(N2CCC(N3CCCN(C)CC3)CC2)c(Cl)cc1Nc1ncc(Br)c(Nc2cc3c(cc2NS(C)(=O)=O)CCO3)n1 [Example 189, N-(6-((5-bromo-2-((5-chloro-2-methoxy-4-(4-(4-methyl-1,4-diazepan-1-yl)piperidin-1-yl)phenyl)amino)pyrimidin-4-yl)amino)-2,3-dihydrobenzofuran-5-yl)methanesulfonamide] showed a GI50 [1] of 25 to 100 nM, a GI50 [2] of 1 to 25 nM and a GI50 [3] of 1 to 25 nM. For the same molecule, the GI50 [4] was 1 to 25 nM, the GI50 [5] was 25 to 100 nM and the GI50 (parental Ba/F3 cell line) was 500 to 2000 nM.
With CCc1cc(Nc2ncc(Cl)c(Nc3ccc4nccnc4c3P(C)(C)=O)n2)c(OC)cc1N1CCC(N2CCN(C)CC2)CC1 [Example 190, (6-((5-chloro-2-((5-ethyl-2-methoxy-4-(4-(4-methylpiperazin-1-yl)piperidin-1-yl)phenyl)amino)pyrimidin-4-yl)amino)quinoxalin-5-yl)dimethylphosphine oxide] the GI50 [1] was 100 to 500 nM, the GI50 [2] was 25 to 100 nM and the GI50 [3] was 25 to 100 nM. It also gave a GI50 [4] of 1 to 25 nM, a GI50 [5] of 1 to 25 nM and a GI50 (parental Ba/F3 cell line) of 100 to 500 nM.
In the case of CCc1cc(Nc2ncc(Br)c(Nc3cc(Cl)ccc3NS(C)(=O)=O)n2)c(OC)cc1N1CCC(N2CCN(C)CC2)CC1 [Example 191, N-(2-((5-bromo-2-((5-ethyl-2-methoxy-4-(4-(4-methylpiperazin-1-yl)piperidin-1-yl)phenyl)amino)pyrimidin-4-yl)amino)-4-chlorophenyl)methanesulfonamide], the GI50 [1] is reported as 100 to 500 nM, the GI50 [2] is reported as 1 to 25 nM and the GI50 [3] is reported as 1 to 25 nM. It also gave a GI50 [4] of 1 to 25 nM, a GI50 [5] of 1 to 25 nM and a GI50 (parental Ba/F3 cell line) of 2000 to 10000 nM.
In the case of CCc1cc(Nc2ncc(Br)c(Nc3ccc4nccnc4c3P(C)(C)=O)n2)c(OC)cc1N1CCC(N2CCN(C)CC2)CC1 [Example 192, (6-((5-bromo-2-((5-ethyl-2-methoxy-4-(4-(4-methylpiperazin-1-yl)piperidin-1-yl)phenyl)amino)pyrimidin-4-yl)amino)quinoxalin-5-yl)dimethylphosphine oxide], the GI50 [1] is reported as 25 to 100 nM, the GI50 [2] is reported as 1 to 25 nM and the GI50 [3] is reported as 1 to 25 nM. For the same molecule, the GI50 [4] was 1 to 25 nM, the GI50 [5] was 1 to 25 nM and the GI50 (parental Ba/F3 cell line) was 100 to 500 nM.
Molecule Cc1cc(Nc2ncc(Br)c(Nc3ccc4nccnc4c3P(C)(C)=O)n2)c(Cl)cc1N1CCC(N2CCN(C)CC2)CC1 [Example 193, (6-((5-bromo-2-((2-chloro-5-methyl-4-(4-(4-methylpiperazin-1-yl)piperidin-1-yl)phenyl)amino)pyrimidin-4-yl)amino)quinoxalin-5-yl)dimethylphosphine oxide] has a GI50 [1] of 100 to 500 nM, a GI50 [2] of 1 to 25 nM and a GI50 [3] of 25 to 100 nM. It also gave a GI50 [4] of 100 to 500 nM, a GI50 [5] of 100 to 500 nM and a GI50 (parental Ba/F3 cell line) of 500 to 2000 nM.
With COc1cc(N2CCC(N3CCN(C)CC3)CC2)c(Cl)cc1Nc1ncc(Br)c(Nc2ccc3nccnc3c2P(C)(C)=O)n1 [Example 194, (6-((5-bromo-2-((5-chloro-2-methoxy-4-(4-(4-methylpiperazin-1-yl)piperidin-1-yl)phenyl)amino)pyrimidin-4-yl)amino)quinoxalin-5-yl)dimethylphosphine oxide] the GI50 [1] was 100 to 500 nM, the GI50 [2] was 25 to 100 nM and the GI50 [3] was 25 to 100 nM. It also gave a GI50 [4] of 25 to 100 nM, a GI50 [5] of 100 to 500 nM and a GI50 (parental Ba/F3 cell line) of 100 to 500 nM.
For COc1cc(N2CCC(N3CCCC(N(C)C)C3)CC2)c(C)cc1Nc1ncc(Br)c(Nc2cc3c(cc2NS(C)(=O)=O)CCO3)n1 (stereo not drawn) [Example 196, N-(6-((5-bromo-2-((4-(3-(dimethylamino)-[1,4′-bipiperidin]-1′-yl)-2-methoxy-5-methylphenyl)amino)pyrimidin-4-yl)amino)-2,3-dihydrobenzofuran-5-yl)methanesulfonamide], the GI50 [1] was 500 to 2000 nM, the GI50 [2] was 1 to 25 nM and the GI50 [3] was 100 to 500 nM. It also gave a GI50 [4] of 1 to 25 nM, a GI50 [5] of 25 to 100 nM and a GI50 (parental Ba/F3 cell line) of 2000 to 10000 nM.
Cc1cc(Nc2ncc(Cl)c(Nc3cc4c(cc3NS(C)(=O)=O)CCO4)n2)c(Cl)cc1N1CCC(N2CCCC(N(C)C)C2)CC1 (stereo not drawn) [Example 197, N-(6-((5-chloro-2-((2-chloro-4-(3-(dimethylamino)-[1,4′-bipiperidin]-1′-yl)-5-methylphenyl)amino)pyrimidin-4-yl)amino)-2,3-dihydrobenzofuran-5-yl)methanesulfonamide] showed a GI50 [1] of 100 to 500 nM, a GI50 [2] of 25 to 100 nM and a GI50 [3] of 100 to 500 nM. The GI50 [4] was 1 to 25 nM, the GI50 [5] was 100 to 500 nM and the GI50 (parental Ba/F3 cell line) was 2000 to 10000 nM.
In the case of COc1ccc(NS(C)(=O)=O)c(Nc2nc(Nc3cc(C)c(N4CCC(N5CCN(C)CC5)CC4)cc3OC)ncc2Cl)c1 [Example 199, N-(2-((5-chloro-2-((2-methoxy-5-methyl-4-(4-(4-methylpiperazin-1-yl)piperidin-1-yl)phenyl)amino)pyrimidin-4-yl)amino)-4-methoxyphenyl)methanesulfonamide], the GI50 [1] is reported as 100 to 500 nM, the GI50 [2] is reported as 1 to 25 nM and the GI50 [3] is reported as 1 to 25 nM. For the same molecule, the GI50 [4] was 1 to 25 nM, the GI50 [5] was 25 to 100 nM and the GI50 (parental Ba/F3 cell line) was 100 to 500 nM.
For COc1ccc(NS(C)(=O)=O)c(Nc2nc(Nc3cc(C)c(N4CCC(N5CCN(C)CC5)CC4)cc3Cl)ncc2Cl)c1 [Example 200, N-(2-((5-chloro-2-((2-chloro-5-methyl-4-(4-(4-methylpiperazin-1-yl)piperidin-1-yl)phenyl)amino)pyrimidin-4-yl)amino)-4-methoxyphenyl)methanesulfonamide], the GI50 [1] was 100 to 500 nM, the GI50 [2] was 25 to 100 nM and the GI50 [3] was 25 to 100 nM. The GI50 [4] was 1 to 25 nM, the GI50 [5] was 25 to 100 nM and the GI50 (parental Ba/F3 cell line) was 100 to 500 nM.
In the case of COc1ccc(NS(C)(=O)=O)c(Nc2nc(Nc3cc(Cl)c(N4CCC(N5CCN(C)CC5)CC4)cc3OC)ncc2Cl)c1 [Example 201, N-(2-((5-chloro-2-((5-chloro-2-methoxy-4-(4-(4-methylpiperazin-1-yl)piperidin-1-yl)phenyl)amino)pyrimidin-4-yl)amino)-4-methoxyphenyl)methanesulfonamide], the GI50 [1] is reported as 1 to 25 nM, the GI50 [2] is reported as 1 to 25 nM and the GI50 [3] is reported as 1 to 25 nM. It also gave a GI50 [4] of 1 to 25 nM, a GI50 [5] of 1 to 25 nM and a GI50 (parental Ba/F3 cell line) of 25 to 100 nM.
COc1ccc(NS(C)(=O)=O)c(Nc2nc(Nc3cc(Cl)c(N4CCC(N5CCN(C)CC5)CC4)cc3Cl)ncc2Cl)c1 [Example 202, N-(2-((5-chloro-2-((2,5-dichloro-4-(4-(4-methylpiperazin-1-yl)piperidin-1-yl)phenyl)amino)pyrimidin-4-yl)amino)-4-methoxyphenyl)methanesulfonamide] showed a GI50 [1] of 100 to 500 nM, a GI50 [2] of 25 to 100 nM and a GI50 [3] of 25 to 100 nM. It also gave a GI50 [4] of 1 to 25 nM, a GI50 [5] of 25 to 100 nM and a GI50 (parental Ba/F3 cell line) of 100 to 500 nM.
In the case of CCc1cc(Nc2ncc(Cl)c(Nc3cc(OC)ccc3NS(C)(=O)=O)n2)c(OC)cc1N1CCC(N2CCN(C)CC2)CC1 [Example 203, N-(2-((5-chloro-2-((5-ethyl-2-methoxy-4-(4-(4-methylpiperazin-1-yl)piperidin-1-yl)phenyl)amino)pyrimidin-4-yl)amino)-4-methoxyphenyl)methanesulfonamide], the GI50 [1] is reported as 500 to 2000 nM, the GI50 [2] is reported as 25 to 100 nM and the GI50 [3] is reported as 25 to 100 nM. It also gave a GI50 [4] of 1 to 25 nM, a GI50 [5] of 100 to 500 nM and a GI50 (parental Ba/F3 cell line) of 2000 to 10000 nM.
With COc1ccc(NS(C)(=O)=O)c(Nc2nc(Nc3cc(C)c(N4CCC(N5CCCN(C)CC5)CC4)cc3OC)ncc2Cl)c1 [Example 204, N-(2-((5-chloro-2-((2-methoxy-5-methyl-4-(4-(4-methyl-1,4-diazepan-1-yl)piperidin-1-yl)phenyl)amino)pyrimidin-4-yl)amino)-4-methoxyphenyl)methanesulfonamide] the GI50 [1] was 25 to 100 nM, the GI50 [2] was 1 to 25 nM and the GI50 [3] was 25 to 100 nM. The GI50 [4] was 1 to 25 nM, the GI50 [5] was 25 to 100 nM and the GI50 (parental Ba/F3 cell line) was 2000 to 10000 nM.
